Experimental data: patent US11560360B2, “Therapeutic compounds” (ARIZONA BOARD OF REGENTS ON BEHALF OF ARIZONA STATE …, priority 2016, dated 2023)

Key:
[1] = system: FRDA fibroblasts (GM04078); experiment: Cytoprotection of BSO-treated FRDA fibroblasts, Live/Dead kit; format: cell-based, human; conditions: overnight preincubation, then BSO (5 mM) 48 h (FIG. 7)
Protocol: Results obtained were verified by running triplicates and repeating experiments in two independent runs.
The ability of test compounds 1-5 to confer cytoprotection to buthionine sulfoximine (BSO)-treated FRDA fibroblasts from oxidative damage-induced death was determined by using simultaneous staining with a two-color fluorescence assay, the Live/Dead® Viability/Cytotoxicity Kit (Molecular Probes, Eugene, Oreg.). The cells were subjected to L-buthionine (S,R)-sulfoximine, an inhibitor of de novo glutathione (GSH) biosynthesis. Oxidative damage-induced death of FRDA fibroblasts was blocked by the test compounds in a concentration dependent manner (FIG. 7). […] The optimal side chain length was 15 carbon atoms.
The ability of the test compounds to confer cytoprotection to BSO-treated FRDA fibroblasts was determined by assessing plasma membrane integrity and intracellular esterase activity using the LIVE/DEAD Viability/Cytotoxicity Kit for mammalian cells according to the manufacturer's protocol. Briefly, FRDA fibroblasts (GM04078) were plated in 96-well microtiter plates at a density of 3000 cell/well (50 μL) (Costar, Corning, N.Y.). The plates were incubated at 37° C. for 24 h in an atmosphere having 95% humidity and 5% CO2 to allow attachment of the cells to the culture plates and to allow the cell density reach 50-60% confluency. The next day the test compounds were dissolved in DMSO, diluted to the appropriate concentrations in fresh cell culture media and the cells were then treated with the test compounds (final DMSO concentration was <0.5%). Plates were incubated at 37° C. overnight in a humidified atmosphere containing 5% CO2 in air. […] Fluorescence intensities were measured with a Spectramax M5 spectrofluorometer (Molecular Devices, Sunnyvale, Calif.) using excitation and emission wavelengths of 485 nm and 525 nm, respectively. […] The viability of non-BSO treated fibroblasts was set as 100%, and the viability of the BSO treated and sample-treated cells was calculated relative to this value. Cell viability was expressed as the percentage of control.

[2] = system: FRDA lymphocytes treated with rotenone (complex I inhibition); experiment: Cytoprotection of rotenone-treated FRDA lymphocytes; format: cell-based, human; conditions: 12 h preincubation in glucose-free media, then rotenone (50 nM) 24 h or 48 h (FIG. 3)
[3] = system: FRDA lymphocyte cells (GM15850); experiment: Reactive oxygen species (ROS) assay, DCFH-DA, diethyl maleate-treated FRDA lymphocytes; format: cell-based, human; conditions: 16 h pretreatment, 5 mM diethyl maleate 80 min, DCFH-DA (FIG. 5)
Protocol: The ability of compounds 1-5 to suppress ROS induced by the depletion of cellular glutathione was evaluated in FRDA lymphocytes in a quantitative FACS experiment using dichlorofluorescein diacetate (DCFH-DA) as an indicator of intracellular ROS levels. In cells DCFH-DA is hydrolyzed by esterases to afford 2, 7-dichlorodihydrofluorescein (DCFH). The non-fluorescent DCFH can be oxidized by cellular oxidants generating fluorescent dichlorofluorescein (DCF).
Reactive Oxygen Species (ROS) Assay
Intracellular ROS production was measured in FRDA lymphocyte cells (GM15850, Coriell Cell Repositories, Camden, N.J.) using the oxidant sensitive fluorescent probe 2,7-dichlorodihydrofluorescein diacetate (DCFH-DA) (Molecular Probes) as described previously. […] The samples were analyzed immediately by flow cytometry (C6 Accuri, BD Biosciences, San Jose, Calif.), using a 488 nm excitation laser and the FL1-H channel 530±15 nm emission filter for DCF and FL2-H channel 585±15 nm emission filter for propidium iodide. The generation of ROS, mainly peroxides, was detected as a result of the oxidation of DCFH. In each analysis, 10,000 events were recorded after dead cell and debris were gated out. […] ROS production was evaluated only in living cells which are propidium iodide negative. […] Results were expressed as percentage of ROS scavenging activity or as percentage of the median fluorescence intensity of DCF.

[4] = system: FRDA lymphocytes; experiment: Measurement of cellular ATP concentration (firefly luciferase); format: cell-based, human; conditions: glucose free media (25 mM galactose), relative to untreated control (FIG. 6)
Protocol: Results are expressed as percentage of total ATP relative to untreated control.
ATP levels in FRDA lymphocytes were measured using firefly luciferase. The cells were grown on glucose-free media supplemented with galactose for 24 h prior to the addition of the test compounds. Since cells grown in galactose rely mostly on oxidative phosphorylation (OX-PHOS) to produce their ATP, they become more sensitive to mitochondrial respiratory chain inhibitors than cells grown in glucose medium.
Measurement of Cellular ATP Concentration
Total ATP levels in FRDA lymphocytes with or without partially blocking complex I activity with rotenone (5 nM) were measured using firefly luciferase as a means to measure ATP level. The cells were grown on glucose-free media supplemented with galactose. Since cells grown in galactose rely mostly on oxidative phosphorylation (OXPHOS) to produce their ATP, they become more sensitive to mitochondria respiratory chain inhibitors than cells grown in glucose medium. Briefly, lymphocytes (2×10^5 cell/mL) were plated (1 mL) in 24-well plates, treated with the test compounds, and then incubated at 37° C. for 48 h in a humidified atmosphere containing 5% CO2 in air. FRDA lymphocytes with partial inhibition of complex I, cells were preincubated with test compounds for overnight before rotenone (5 nM) treatment for 24 h. Cells in each well were mixed and transferred (100 μL) to 96-well microtiter black-walled cell culture plates (Costar, Corning, N.Y.). The total intracellular ATP level was measured in a luminator (Clarity™ luminescence microplate reader) using an ATP Bioluminescence Assay Kit (ViaLight®-Plus ATP monitoring reagent kit, Lonza) following the manufacturer's protocol. The total ATP level was expressed as a percentage of untreated control. Data are reported as the mean of at least three independent experiments.

[5] = system: FRDA lymphocytes; experiment: Cytotoxicity assay in FRDA lymphocytes cultured in glucose free media (galactose), Live/Dead flow cytometry; format: cell-based; conditions: FRDA lymphocytes, galactose as sole sugar source, 24 h or 48 h incubation (FIG. 2)
Protocol: Flow cytometric determination of cell viability by fluorescence labeling was used employing calcein acetoxy-methyl-ester and ethidium homodimer-1 as live and dead cell stains
Cytotoxicity was assessed by the dye exclusion method. Live cells have intact membranes, which exclude a variety of dyes that easily penetrate the damaged, permeable membranes of non-viable cells. Propidium iodide, a membrane impermeant dye, is generally excluded from viable cells, although it can enter non-viable cells and bind to double-stranded DNA by intercalating between base pairs. Compounds 1-5 were tested for their cytotoxicity in FRDA lymphocytes using FACS analysis with propidium iodide. The results are depicted in FIG. 2. From the results it is evident that cytotoxicity decreases with increasing lipophilicity in lower as well as higher concentrations for compounds 1-5.
Evaluation of compounds 1-5 for their cytotoxicity and their ability to function within the mitochondrial respiratory chain was carried out by incubation of the prepared compounds for 24 or 48 h with FRDA lymphocytes. A nutrient-sensitized screening strategy has been used by culturing FRDA cells in galactose as the sole sugar source which forces mammalian cells to rely on mitochondrial oxidative phosphorylation (OXPHOS) to produce their ATP; they also become more sensitive to mitochondrial respiratory chain inhibitors than cells grown in glucose medium. Compounds 1-5 were tested for their cytotoxicity in FRDA lymphocytes using a simultaneous staining with a two-color fluorescence assay, the Live/Dead® Viability/Cytotoxicity Kit (Molecular Probes). This assay is used to measure two recognized parameters of cell viability, intracellular esterase activity and plasma integrity. The membrane-impermeant DNA dye ethidium homodimer-1 (EthD-1) was used to identify dead cells whose plasma membrane integrity was disrupted. The membrane-permeant dye calcein-AM was used to label live cells. It penetrates into the cells where it is metabolized by cytoplasmic esterases and becomes a fluorescent but membrane-impermeant probe which is retained in viable cells. One mL of FRDA lymphocyte cells (5×10^5 cells) was plated in a 24-well plate in glucose free media (galactose 25 mM), treated with the test compounds and incubated at 37° C. for 24 h or 48 h in a humidified atmosphere containing 5% CO2 in air. Cells were collected by centrifugation at 300×g for 3 min and washed with phosphate buffered saline. […] The samples were analyzed immediately by flow cytometry (C6 Accuri, BD Biosciences, San Jose, Calif.), using a 488 nm excitation laser and the and the FL1-H channel 530±15 nm emission filter and the FL2-H channel 585±15 nm. For each analysis 10,000 events were recorded and analyzed using C6 Accuri software (BD Biosciences).

[6] = system: mitochondrial inner membrane potential in FRDA lymphocytes; experiment: JC-1 mitochondrial membrane potential (Δψm) assay; format: cell-based, human; conditions: 16 h pre-treatment, JC-1, FACS (FIG. 4)
Protocol: In each analysis, 10000 events were recorded. Depolarization with carbonyl cyanide p-(trifluoromethoxy) phenylhydrazone (FCCP), was used to serve as a positive control.
The ability of 1-5 to maintain mitochondrial membrane potential (ΔΨm) compared to the parent compound MV was studied. ΔΨm was determined using the cationic fluorescent dye 5, 5′, 6, 6′-tetrachloro-1, 1′, 3, 3′-tetraethylbenzimidazolyl carbocyanine iodide (JC-1), which is a lipophilic cation that selectively accumulates in mitochondria due to the negative potential across the inner mitochondrial membrane. The dye exists as a monomer at low concentrations giving a green fluorescence. […] Therefore, mitochondrial depolarization is indicated by a decrease in red/green fluorescence ratio. […]
The ability of the test compounds to depolarize or maintains mitochondrial inner membrane potential (Δψm) was assessed using the JC-1 probe. […] JC-1 is a dual stain, which can identify high membrane potential through J-aggregates (red fluorescence) and low membrane potential through J-monomers (green fluorescence). […] Cells were resuspended in phosphate buffered saline supplemented with 20 mM glucose and were analyzed immediately by FACS (C6 Accuri, BD Biosciences, San Jose, Calif.), using a 488 nm excitation laser and the FL1-H channel 530±15 nm emission filter and the FL2-H channel 585±15 nm. […]

SMILES	cytoprotection from oxidative damage-induced death [1]	cytoprotection against rotenone cytotoxicity [2]	suppression of ROS induced by depletion of cellular glutathione [3]	cellular ATP levels [4]	cytotoxicity [5]	preservation of mitochondrial membrane potential (Δψm) [6]
CCCCCCCCCCCCCCCN(C)c1ccc2nc3ccc(=O)cc-3sc2c1 [Compound 4, 7-(N-Methyl-N-pentadecylamino)-3H-phenothiazin-3-one]	better potency than 1 or 2	protect the cells against rotenone cytotoxicity more efficiently than the parent compound MV	more potent and effective in protecting FRDA lymphocytes than the parent compound MV	–	–	–
CCCCN(CCCC)c1ccc2nc3ccc(=O)cc-3sc2c1 [Compound 1, 7-(N,N-Dibutylamino)-3H-phenothiazin-3-one]	–	–	–	reduces cellular ATP levels in all concentrations	somewhat cytotoxic	–
CCCCCCCCCCCCCCCN(CCCCCCCCCCCCCCC)c1ccc2nc3ccc(=O)cc-3sc2c1 [Compound 3, 7-(N,N-Dipentadecylamino)-3H-phenothiazin-3-one]	the least effective	–	–	–	–	–
CCCCCCCCCCN(CCCCCCCCCC)c1ccc2nc3ccc(=O)cc-3sc2c1 [Compound 2, 7-(N,N-Didecylamino)-3H-phenothiazin-3-one]	–	–	–	reduces cellular ATP levels in all concentrations	somewhat cytotoxic	–
CCCCCCCCCCCCCCCN(CCCC)c1ccc2nc3ccc(=O)cc-3sc2c1 [Compound 5, 7-(N-Butyl-N-pentadecylamino)-3H-phenothiazin-3-one]	better potency than 1 or 2	protect the cells against rotenone cytotoxicity more efficiently than the parent compound MV	more potent and effective in protecting FRDA lymphocytes than the parent compound MV	–	–	–
CN(C)c1ccc2nc3ccc(=O)cc-3sc2c1 [MV, Methylene violet, reference compound]	–	–	–	strongly reduces cellular ATP levels in a concentration dependent manner	–	significantly depolarized Δψm
